Results from the supplement of paper PMC9663587.

Key:
Experiment in all cases: increase in dead-cell fraction, 72 h; higher = more death;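 further: breast cancer cell lines in 384-well plates, stained with Hoechst plus LIVE/DEAD far red dye and imaged, cells above an LDR intensity threshold counted dead, Hoechst-negative corpses included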
Ipatasertib/GDC0068 = compound: CC(C)NC[C@@H](C(=O)N1CCN(c2ncnc3c2[C@H](C)C[C@H]3O)CC1)c1ccc(Cl)cc1 [Ipatasertib/GDC0068]
[1] = compound: CCCCOc1c(C(=O)c2c(F)cc(C)cc2F)c[nH]c2nncc1-2
FMF-03-146-1 = compound: CN1CCN(CC1)C2=CC(=C(C=C2)NC3=NC=C4C(=N3)N(C5=CC=CC=C5C(=O)N4CC(F)(F)F)C)OC [FMF-03-146-1]
[2] = compound: CNc1nc(-c2ccc3c(N)n[nH]c3c2)cc(N2C[C@@H](C(=O)NC3CCCCC3)CC[C@H]2C)n1
Cediranib/AZD2171 = compound: COc1cc2c(Oc3ccc4[nH]c(C)cc4c3F)ncnc2cc1OCCCN1CCCC1 [Cediranib/AZD2171]
Cabozantinib = compound: COc1cc2nccc(Oc3ccc(NC(=O)C4(C(=O)Nc5ccc(F)cc5)CC4)cc3)c2cc1OC [Cabozantinib]

AU565
increase in dead-cell fraction (Ipatasertib/GDC0068; 0.001 µM): 0.0001 | increase in dead-cell fraction (Ipatasertib/GDC0068; 0.003162 µM): 0.0023 | increase in dead-cell fraction (Ipatasertib/GDC0068; 0.01 µM): -0.0023 | increase in dead-cell fraction (Ipatasertib/GDC0068; 0.03162 µM): -0.0006 | increase in dead-cell fraction (Ipatasertib/GDC0068; 0.1 µM): 0.0018 | increase in dead-cell fraction (Ipatasertib/GDC0068; 0.3162 µM): 0.0082 | increase in dead-cell fraction (Ipatasertib/GDC0068; 1 µM): 0.0032 | increase in dead-cell fraction (Ipatasertib/GDC0068; 3.162 µM): 0.0084 | increase in dead-cell fraction (Ipatasertib/GDC0068; 10 µM): 0.0293 | increase in dead-cell fraction ([1]; 0.001 µM): 0.0215 | increase in dead-cell fraction ([1]; 0.003162 µM): -0.004 | increase in dead-cell fraction ([1]; 0.01 µM): 0.0231 | increase in dead-cell fraction ([1]; 0.03162 µM): 0.0204 | increase in dead-cell fraction ([1]; 0.1 µM): 0.0353 | increase in dead-cell fraction ([1]; 0.3162 µM): 0.0286 | increase in dead-cell fraction ([1]; 1 µM): 0.0615 | increase in dead-cell fraction ([1]; 3.162 µM): 0.0772 | increase in dead-cell fraction ([1]; 10 µM): 0.136 | increase in dead-cell fraction (FMF-03-146-1; 0.001 µM): -0.0004 | increase in dead-cell fraction (FMF-03-146-1; 0.003162 µM): -0.0059 | increase in dead-cell fraction (FMF-03-146-1; 0.01 µM): -0.0077 | increase in dead-cell fraction (FMF-03-146-1; 0.03162 µM): -0.0019 | increase in dead-cell fraction (FMF-03-146-1; 0.1 µM): -0.007 | increase in dead-cell fraction (FMF-03-146-1; 0.3162 µM): 0.0094 | increase in dead-cell fraction (FMF-03-146-1; 1 µM): 0.0124 | increase in dead-cell fraction (FMF-03-146-1; 3.162 µM): -0.0094 | increase in dead-cell fraction (FMF-03-146-1; 10 µM): 0.0136 | increase in dead-cell fraction ([2]; 0.001 µM): -0.0175 | increase in dead-cell fraction ([2]; 0.003162 µM): 0.001 | increase in dead-cell fraction ([2]; 0.01 µM): 0.0046 | increase in dead-cell fraction ([2]; 0.03162 µM): 0.0008 | increase in dead-cell fraction ([2]; 0.1 µM): 0.0065 | increase in dead-cell fraction ([2]; 0.3162 µM): 0.0014 | increase in dead-cell fraction ([2]; 1 µM): 0.0253 | increase in dead-cell fraction ([2]; 3.162 µM): 0.0252 | increase in dead-cell fraction ([2]; 10 µM): 0.0432 | increase in dead-cell fraction (Cediranib/AZD2171; 0.001 µM): 0.0037 | increase in dead-cell fraction (Cediranib/AZD2171; 0.003162 µM): 0.0046 | increase in dead-cell fraction (Cediranib/AZD2171; 0.01 µM): 0.0016 | increase in dead-cell fraction (Cediranib/AZD2171; 0.03162 µM): 0.0034 | increase in dead-cell fraction (Cediranib/AZD2171; 0.1 µM): -0.0003 | increase in dead-cell fraction (Cediranib/AZD2171; 0.3162 µM): -0.0061 | increase in dead-cell fraction (Cediranib/AZD2171; 1 µM): -0.0046 | increase in dead-cell fraction (Cediranib/AZD2171; 3.162 µM): -0.0048 | increase in dead-cell fraction (Cediranib/AZD2171; 10 µM): 0.0027 | increase in dead-cell fraction (Cabozantinib; 0.001 µM): 0.0017 | increase in dead-cell fraction (Cabozantinib; 0.003162 µM): 0.0057 | increase in dead-cell fraction (Cabozantinib; 0.01 µM): 0.0018 | increase in dead-cell fraction (Cabozantinib; 0.03162 µM): -0.0008 | increase in dead-cell fraction (Cabozantinib; 0.1 µM): -0.003 | increase in dead-cell fraction (Cabozantinib; 0.3162 µM): 0.0025 | increase in dead-cell fraction (Cabozantinib; 1 µM): 0.0028 | increase in dead-cell fraction (Cabozantinib; 3.162 µM): -0.0021
